Source: patent publication US9605004B2, “Chemical compounds” (SYNGENTA LIMITED, priority 2013, dated 2017)

Experiments:
[1] = system: a variety of test species; experiment: Pre-emergence herbicidal activity (Example 8a, Table 2); format: in vivo; parameters: key: 0 = no damage to plant, 5 = total damage to plant; conditions: application pre-emergence, rate 1000 g/ha, evaluated after 13 days
Summary of the method: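 Sow in pots of standard soil; after one day under glasshouse conditions, spray compound (acetone/water 50:50 formulation, 0.5% Tween 20, diluted in water). Grow on at 24/16 °C, 14 h light, 65% humidity with twice-daily watering. Assess at 13 days, 0–5 damage scale.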

[2] = system: a variety of test species; experiment: Post-emergence herbicidal activity (Example 8b, Table 3); format: in vivo; conditions: application post-emergence, rate 1000 g/ha, evaluated after 13 days, scale 0-5; for Herbicidal damage score, ABUTH: Abutilon theophrasti; for Herbicidal damage score, ALOMY: Alopecurus myosuroides; for Herbicidal damage score, AMARE: Amaranthus retroflexus; for Herbicidal damage score, ECHCG: Echinochloa crus-galli; for Herbicidal damage score, SETFA: Setaria faberi; for Herbicidal damage score, ZEAMX: Zea mays
Summary of the method: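 Damage rating 0 (none) to 5 (total), assessed 13 days after spraying. Plants received the compound in acetone/water 50:50 with 0.5% Tween 20 at 8 days post-sowing, then were kept at 24/16 °C, 14 h photoperiod, 65% RH.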

In the case of `CC1=C(Br)C(=O)N(c2cc3n(n2)CCS(=O)(=O)C3(C)C)C1O` (stereo not drawn) [Compound M4], the “Pre-emergence herbicidal activity, damage score ABUTH” value [1] is reported as 5, the “Pre-emergence herbicidal activity, damage score ALOMY” value [1] is reported as 2 and the “Pre-emergence herbicidal activity, damage score AMARE” value [1] is reported as 5. For the same compound, the “Pre-emergence herbicidal activity, damage score ECHCG” value [1] was 2, the “Pre-emergence herbicidal activity, damage score SETFA” value [1] was 2 and the “Pre-emergence herbicidal activity, damage score ZEAMX” value [1] was 1. For the same compound, the “Herbicidal damage score, ABUTH” value [2] was 5, the “Herbicidal damage score, ALOMY” value [2] was 4 and the “Herbicidal damage score, AMARE” value [2] was 5. For the same compound, the “Herbicidal damage score, ECHCG” value [2] was 5, the “Herbicidal damage score, SETFA” value [2] was 4 and the “Herbicidal damage score, ZEAMX” value [2] was 0.
`CC1=C(Br)C(=O)N(c2nn(C)c3c2CCC3(C)C)C1O` (stereo not drawn) [Compound N1] was tested, and the “Pre-emergence herbicidal activity, damage score ABUTH” value [1] was 5, the “Pre-emergence herbicidal activity, damage score ALOMY” value [1] was 4 and the “Pre-emergence herbicidal activity, damage score AMARE” value [1] was 5. The “Pre-emergence herbicidal activity, damage score ECHCG” value [1] was 4, the “Pre-emergence herbicidal activity, damage score SETFA” value [1] was 5 and the “Pre-emergence herbicidal activity, damage score ZEAMX” value [1] was 4. For the same compound, the “Herbicidal damage score, ABUTH” value [2] was 5, the “Herbicidal damage score, ALOMY” value [2] was 5 and the “Herbicidal damage score, AMARE” value [2] was 5. The “Herbicidal damage score, ECHCG” value [2] was 5, the “Herbicidal damage score, SETFA” value [2] was 5 and the “Herbicidal damage score, ZEAMX” value [2] was 4.
For `COC1=C(Br)C(=O)N(c2nn(C)c(C(C)(C)C)c2Br)C1O` (stereo not drawn) [Compound O1], the “Pre-emergence herbicidal activity, damage score ABUTH” value [1] was 0, the “Pre-emergence herbicidal activity, damage score ALOMY” value [1] was 0 and the “Pre-emergence herbicidal activity, damage score AMARE” value [1] was 0. For the same compound, the “Pre-emergence herbicidal activity, damage score ECHCG” value [1] was 0, the “Pre-emergence herbicidal activity, damage score SETFA” value [1] was 0 and the “Pre-emergence herbicidal activity, damage score ZEAMX” value [1] was 0. The “Herbicidal damage score, ABUTH” value [2] was 0, the “Herbicidal damage score, ALOMY” value [2] was 0 and the “Herbicidal damage score, AMARE” value [2] was 0. The “Herbicidal damage score, ECHCG” value [2] was 0, the “Herbicidal damage score, SETFA” value [2] was 0 and the “Herbicidal damage score, ZEAMX” value [2] was 0.
In the case of `COC1=C(C)C(O)N(c2cc3n(n2)CCC3(C)C)C1=O` (stereo not drawn) [Compound R1], the “Pre-emergence herbicidal activity, damage score ABUTH” value [1] is reported as 5, the “Pre-emergence herbicidal activity, damage score ALOMY” value [1] is reported as 4 and the “Pre-emergence herbicidal activity, damage score AMARE” value [1] is reported as 5. The “Pre-emergence herbicidal activity, damage score ECHCG” value [1] was 5, the “Pre-emergence herbicidal activity, damage score SETFA” value [1] was 5 and the “Pre-emergence herbicidal activity, damage score ZEAMX” value [1] was 4. The “Herbicidal damage score, ABUTH” value [2] was 5, the “Herbicidal damage score, ALOMY” value [2] was 5 and the “Herbicidal damage score, AMARE” value [2] was 5. For the same compound, the “Herbicidal damage score, ECHCG” value [2] was 5, the “Herbicidal damage score, SETFA” value [2] was 5 and the “Herbicidal damage score, ZEAMX” value [2] was 5.
For `COC1=C(C)C(O)N(c2cc3n(n2)CCCC3(C)C)C1=O` (stereo not drawn) [Compound R2], the “Pre-emergence herbicidal activity, damage score ABUTH” value [1] was 5, the “Pre-emergence herbicidal activity, damage score ALOMY” value [1] was 4 and the “Pre-emergence herbicidal activity, damage score AMARE” value [1] was 5. The “Pre-emergence herbicidal activity, damage score ECHCG” value [1] was 5, the “Pre-emergence herbicidal activity, damage score SETFA” value [1] was 5 and the “Pre-emergence herbicidal activity, damage score ZEAMX” value [1] was 4. For the same compound, the “Herbicidal damage score, ABUTH” value [2] was 5, the “Herbicidal damage score, ALOMY” value [2] was 5 and the “Herbicidal damage score, AMARE” value [2] was 5. The “Herbicidal damage score, ECHCG” value [2] was 5, the “Herbicidal damage score, SETFA” value [2] was 5 and the “Herbicidal damage score, ZEAMX” value [2] was 4.
`COC1=C(OC)C(O)N(c2cc(C(C)(C)C)n(C)n2)C1=O` (stereo not drawn) [Compound T1] was tested, and the “Pre-emergence herbicidal activity, damage score ABUTH” value [1] was 5, the “Pre-emergence herbicidal activity, damage score ALOMY” value [1] was 4 and the “Pre-emergence herbicidal activity, damage score AMARE” value [1] was 5. For the same compound, the “Pre-emergence herbicidal activity, damage score ECHCG” value [1] was 5, the “Pre-emergence herbicidal activity, damage score SETFA” value [1] was 4 and the “Pre-emergence herbicidal activity, damage score ZEAMX” value [1] was 2. The “Herbicidal damage score, ABUTH” value [2] was 5, the “Herbicidal damage score, ALOMY” value [2] was 5 and the “Herbicidal damage score, AMARE” value [2] was 5. The “Herbicidal damage score, ECHCG” value [2] was 5, the “Herbicidal damage score, SETFA” value [2] was 5 and the “Herbicidal damage score, ZEAMX” value [2] was 3.
With `COC1=C(OC)C(O)N(c2cc(C(F)(F)F)n(C)n2)C1=O` (stereo not drawn) [Compound T2] the “Pre-emergence herbicidal activity, damage score ABUTH” value [1] was 5, the “Pre-emergence herbicidal activity, damage score ALOMY” value [1] was 4 and the “Pre-emergence herbicidal activity, damage score AMARE” value [1] was 4. The “Pre-emergence herbicidal activity, damage score ECHCG” value [1] was 5, the “Pre-emergence herbicidal activity, damage score SETFA” value [1] was 5 and the “Pre-emergence herbicidal activity, damage score ZEAMX” value [1] was 4. For the same compound, the “Herbicidal damage score, ABUTH” value [2] was 5, the “Herbicidal damage score, ALOMY” value [2] was 5 and the “Herbicidal damage score, AMARE” value [2] was 5. The “Herbicidal damage score, ECHCG” value [2] was 5, the “Herbicidal damage score, SETFA” value [2] was 5 and the “Herbicidal damage score, ZEAMX” value [2] was 5.
With `COC1=C(OC)C(O)N(c2cc3n(n2)CCC3(C)C)C1=O` (stereo not drawn) [Compound W1] the “Pre-emergence herbicidal activity, damage score ABUTH” value [1] was 5, the “Pre-emergence herbicidal activity, damage score ALOMY” value [1] was 4 and the “Pre-emergence herbicidal activity, damage score AMARE” value [1] was 5. The “Pre-emergence herbicidal activity, damage score ECHCG” value [1] was 4, the “Pre-emergence herbicidal activity, damage score SETFA” value [1] was 5 and the “Pre-emergence herbicidal activity, damage score ZEAMX” value [1] was 3. For the same compound, the “Herbicidal damage score, ABUTH” value [2] was 5, the “Herbicidal damage score, ALOMY” value [2] was 5 and the “Herbicidal damage score, AMARE” value [2] was 5. The “Herbicidal damage score, ECHCG” value [2] was 5, the “Herbicidal damage score, SETFA” value [2] was 5 and the “Herbicidal damage score, ZEAMX” value [2] was 5.
For `COC1=C(OC)C(O)N(c2cc3n(n2)CCCC3(C)C)C1=O` (stereo not drawn) [Compound W2], the “Pre-emergence herbicidal activity, damage score ABUTH” value [1] was 5, the “Pre-emergence herbicidal activity, damage score ALOMY” value [1] was 4 and the “Pre-emergence herbicidal activity, damage score AMARE” value [1] was 5. The “Pre-emergence herbicidal activity, damage score ECHCG” value [1] was 4, the “Pre-emergence herbicidal activity, damage score SETFA” value [1] was 5 and the “Pre-emergence herbicidal activity, damage score ZEAMX” value [1] was 4. For the same compound, the “Herbicidal damage score, ABUTH” value [2] was 5, the “Herbicidal damage score, ALOMY” value [2] was 5 and the “Herbicidal damage score, AMARE” value [2] was 5. The “Herbicidal damage score, ECHCG” value [2] was 5, the “Herbicidal damage score, SETFA” value [2] was 5 and the “Herbicidal damage score, ZEAMX” value [2] was 5.
